The values that follow come from PubChem BioAssay (NCI).

Among the test systems are DU-145 prostate; HT29 colon; IGROV1 ovarian; MOLT-4 leukemia; OVCAR-4 ovarian; OVCAR-3 ovarian; CAKI-1 renal; RPMI-8226 leukemia; HCT-15 colon; CCRF-CEM leukemia; U251 CNS; SK-MEL-2 melanoma; HOP-92 NSCLC; UO-31 renal; MDA-MB-231 breast; HCC-2998 colon; SF-268 CNS; MCF7 breast; SK-MEL-5 melanoma.
Holding throughout (assay): NCI-60 cell line screen, 48 h

Structures are written as SMILES.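 Growth conditions: 96-well plates. Treatment: test compound, 48 hours, 5 concentrations. Analysis: linear interpolation between bracketing concentrations; unreached endpoints set to highest concentration. TGI is the concentration that stops growth completely.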

For the compound `Cc1ccc2nc(CN3CCCC(O)C3)cc(=O)n2c1` (stereo not given), the TGI in the experiment with DU-145 prostate, in the experiment with HT29 colon, with IGROV1 ovarian, in the experiment with MOLT-4 leukemia, with OVCAR-4 ovarian and with OVCAR-3 ovarian was over 100 µM each time. The TGI in the experiment with CAKI-1 renal, in the experiment on RPMI-8226 leukemia, in the experiment on HCT-15 colon, in the experiment with CCRF-CEM leukemia, with U251 CNS and in the experiment on SK-MEL-2 melanoma was over 100 µM each time. For the same compound, the TGI in the experiment on HOP-92 NSCLC, with UO-31 renal, in the experiment on MDA-MB-231 breast, with HCC-2998 colon, in the experiment with SF-268 CNS and in the experiment on MCF7 breast was over 100 µM in each case.

On to `c1ccc2c(C3CCN(CCN4CCOCC4)C3)c[nH]c2c1` (stereo not given), for which the TGI with DU-145 prostate, in the experiment on HT29 colon, in the experiment with IGROV1 ovarian, in the experiment on OVCAR-4 ovarian, in the experiment with OVCAR-3 ovarian and in the experiment on CAKI-1 renal was over 100 µM throughout. Moreover, the TGI in the experiment on RPMI-8226 leukemia, with HCT-15 colon, in the experiment with CCRF-CEM leukemia, with U251 CNS, in the experiment with SK-MEL-2 melanoma and in the experiment with SK-MEL-5 melanoma was over 100 µM throughout. The TGI with HOP-92 NSCLC, in the experiment on UO-31 renal, in the experiment on MDA-MB-231 breast, with HCC-2998 colon, in the experiment with SF-268 CNS and in the experiment with MCF7 breast was over 100 µM each time.

For the compound `CC1=NN(C(=O)CC(=O)Nc2ccc(C)cc2)C(=O)C1N=Nc1ccc(C(=O)O)cc1` (stereo not given), the TGI in the experiment with DU-145 prostate, with HT29 colon, in the experiment with IGROV1 ovarian, in the experiment with OVCAR-4 ovarian, in the experiment on OVCAR-3 ovarian and with CAKI-1 renal was over 100 µM each time. Moreover, the TGI in the experiment on RPMI-8226 leukemia, with HCT-15 colon, with CCRF-CEM leukemia, with U251 CNS, in the experiment on SK-MEL-2 melanoma and with SK-MEL-5 melanoma was over 100 µM in each case. Besides, the TGI with HOP-92 NSCLC, in the experiment on UO-31 renal, in the experiment on MDA-MB-231 breast, in the experiment with HCC-2998 colon, in the experiment on SF-268 CNS and in the experiment with MCF7 breast was over 100 µM each time.

Consider `COc1ccc2nc3c([N+](=O)[O-])ccc4c3c(c2c1)N=CN4CCCN(C)C`, for which the TGI in the experiment on DU-145 prostate was 13.9 µM; in the experiment on HT29 colon it was 12.5 µM; with IGROV1 ovarian, 6.16 µM; in the experiment on MOLT-4 leukemia, 0.757 µM; with OVCAR-3 ovarian, 20.2 µM; in the experiment with CAKI-1 renal it was 7.26 µM. Besides, the TGI with RPMI-8226 leukemia is 0.772 µM; in the experiment on HCT-15 colon, 15.2 µM; with CCRF-CEM leukemia it was 3.18 µM; with U251 CNS, 24.3 µM; in the experiment with SK-MEL-2 melanoma, 22.8 µM; in the experiment on SK-MEL-5 melanoma, 12.1 µM. In addition, the TGI is 8.94 µM in the experiment with HOP-92 NSCLC; 10.7 µM with UO-31 renal; 8.27 µM in the experiment on MDA-MB-231 breast; 6.54 µM with HCC-2998 colon; 17.8 µM in the experiment with SF-268 CNS; 11.6 µM with MCF7 breast.

As to `COc1cccc(OC/C(N=Cc2cccnc2)=N/NC(=O)c2ccncc2)c1`, the TGI in the experiment on DU-145 prostate, in the experiment on HT29 colon, with IGROV1 ovarian, in the experiment on MOLT-4 leukemia, in the experiment on OVCAR-4 ovarian and in the experiment with OVCAR-3 ovarian was over 100 µM each time. Also, the TGI in the experiment with CAKI-1 renal, in the experiment on RPMI-8226 leukemia, with HCT-15 colon, in the experiment with CCRF-CEM leukemia, in the experiment on U251 CNS and in the experiment with SK-MEL-2 melanoma was over 100 µM throughout. In addition, the TGI in the experiment with HOP-92 NSCLC, in the experiment with MDA-MB-231 breast, in the experiment with HCC-2998 colon, with SF-268 CNS and with MCF7 breast was over 100 µM in each case.

As to `CCN(CC)C1Oc2cc3c(cc2C(c2ccc(OC)cc2)C1C)OCO3` (stereo not given), the TGI is 76.4 µM in the experiment on DU-145 prostate; 34.7 µM with HT29 colon; 86.9 µM with IGROV1 ovarian; 41.8 µM with MOLT-4 leukemia; 37.1 µM with OVCAR-3 ovarian; 76.4 µM with CAKI-1 renal. In addition, the TGI amounted to 38 µM with RPMI-8226 leukemia; 98.1 µM in the experiment on HCT-15 colon; 34 µM in the experiment with CCRF-CEM leukemia; 54.9 µM with U251 CNS; 38.6 µM with SK-MEL-2 melanoma; 31.9 µM with SK-MEL-5 melanoma. For the same compound, the TGI worked out at 57.9 µM in the experiment with HOP-92 NSCLC; 64.9 µM in the experiment with UO-31 renal; 49.2 µM in the experiment on MDA-MB-231 breast; 35.3 µM with HCC-2998 colon; 50.1 µM in the experiment with SF-268 CNS; 47.7 µM with MCF7 breast.

`Cc1c(C)c2c(c(N)c1C#N)C(=O)N(CCc1ccccc1)C2=O`: the TGI with DU-145 prostate, in the experiment with IGROV1 ovarian, in the experiment with MOLT-4 leukemia, in the experiment on OVCAR-4 ovarian, in the experiment with OVCAR-3 ovarian and in the experiment with CAKI-1 renal was over 100 µM each time. Further, the TGI with RPMI-8226 leukemia, in the experiment with HCT-15 colon, with CCRF-CEM leukemia, with U251 CNS, with SK-MEL-2 melanoma and in the experiment on SK-MEL-5 melanoma was over 100 µM throughout. Also, the TGI in the experiment on HOP-92 NSCLC, with UO-31 renal, in the experiment on MDA-MB-231 breast, in the experiment with HCC-2998 colon, in the experiment with SF-268 CNS and in the experiment on MCF7 breast was over 100 µM throughout.
